Measured values published in patent publication US11452728B2, “7-aminocephalosporanic acid derivative as inhibitor of IL15 and IL-2 activity” (Warszawski Uniwersytet Medyczny, priority 2013, dated 2022).

Legend:
[1] = cited from earlier work
[2] = tested on: IL-2-induced TNF-α synthesis in PBMC; assay: IL-2-induced TNF-α synthesis in PBMC (ELISA); assay type: cell-based, human; details: IL-2 5 ng/ml; 48 h; Cefazolin 300 μM; vs IL-2 stimulated control cells
Method: (§1) All experiments were carried out on peripheral blood mononuclear cells (PBMC) from healthy donors. The cells were isolated under the standard protocol regarding density gradient centrifugation. According to the general protocol, 6 ml of blood was layered on 3 ml of Lymphoprep (Axis-shield, Norway), then centrifuged at 800×g for 15 min. The layer of PBMC was collected, the cells were washed twice with phosphate buffered saline (PBS) (BIOMED-LUBLIN, Poland) and suspended in medium RPMI1640 (Gibco, Great Britain), containing 10 mM HEPES (Sigma, USA), 10% fetal calf serum (BIOMED-LUBLIN, Poland) and antibiotic (streptomycin sulfate, penicillin G sodium; amphotericin B, PAA, Austria).
(§2) In all the in vitro experiments non-stimulated PBMC were used as the control. The inhibition efficacy was assessed in relation to the cells stimulated with IL-15 or IL-2. […]
(§3) The PBMC were seeded in a 24-well plate (2×10^6 cells in 1 ml of the culture medium/well), treated with the tested compound and after 30 min stimulated with IL-15 (5 ng/ml) or IL-2 (5 ng/ml). After 48 h incubation, the culture medium was collected from each well to determine the TNF-α concentration, cells were harvested and lysed, and the concentration of total protein was measured in cell lysates. The obtained values of TNF-α concentration were calculated for 1 mg of protein. […]

[3] = tested on: IL-15-induced TNF-α synthesis in PBMC; assay: IL-15-induced TNF-α synthesis in PBMC (ELISA); assay type: cell-based, human; details: IL-15 5 ng/ml; 48 h; Cefazolin 20-1000 μM; vs IL-15 stimulated control cells
Method: as §1, §2, §3

IL-2-stimulated PBMC = assay: IL-2-induced PBMC proliferation (BrdU Cell Proliferation Assay); assay type: cell-based, human; details: IL-2 5 ng/ml; Cefazolin 20, 100, 300 μM; 4 days; repeated three times, different donors
Method: (§4) All experiments were carried out on peripheral blood mononuclear cells (PBMC) from healthy donors. The cells were isolated under the standard protocol regarding density gradient centrifugation. According to the general protocol, 6 ml of blood was layered on 3 ml of Lymphoprep (Axis-shield, Norway), then centrifuged at 800×g for 15 min. The layer of PBMC was collected, the cells were washed twice with phosphate buffered saline (PBS) (BIOMED-LUBLIN, Poland) and suspended in medium RPMI1640 (Gibco, Great Britain), containing 10 mM HEPES (Sigma, USA), 10% fetal calf serum (BIOMED-LUBLIN, Poland) and antibiotic (streptomycin sulfate, penicillin G sodium; amphotericin B, PAA, Austria). In all the in vitro experiments non-stimulated PBMC were used as the control. The inhibition efficacy was assessed in relation to the cells stimulated with IL-15 or IL-2. PBMC proliferation was evaluated using commercially available BrdU Cell Proliferation Assay (Calbiochem, Merck, Germany). PBMC were seeded in a 96-well plate (25×10^3 cells in 200 μL of the culture medium/well). The next day the cells were treated with the tested compound at final concentrations: 20 μM, 100 μM and 300 μM. […] The results are expressed as the percentage change of proliferating cells with regard to the control cells stimulated with IL-15 or IL-2. […]

IL-15-stimulated PBMC = assay: IL-15-induced PBMC proliferation (BrdU Cell Proliferation Assay); assay type: cell-based, human; details: IL-15 5 ng/ml; Cefazolin 20, 100, 300 μM; 4 days; repeated three times, different donors
Method: as §4

[4] = tested on: IL-15-induced IL-17 synthesis in PBMC; assay: IL-15-induced IL-17 synthesis in PBMC (ELISA); assay type: cell-based, human
Method: as §1, §2
as §3, with “PBMC” for “The PBMC”, “the inhibitor,” for “the tested compound and”, “30 min.” for “30 min”, “48 hr” for “48 h”, “the IL-17” for “the TNF-α”, “of IL-17” for “of TNF-α”

[5] = tested on: IL-2-induced IL-17 synthesis in PBMC; assay: IL-2-induced IL-17 synthesis in PBMC (ELISA); assay type: cell-based, human; details: IL-2 5 ng/ml; 48 h; Cefazolin 300 μM
Method: as §1, §2
as §3, with “PBMC” for “The PBMC”, “the inhibitor,” for “the tested compound and”, “30 min.” for “30 min”, “48 hr” for “48 h”, “the IL-17” for “the TNF-α”, “of IL-17” for “of TNF-α”

Gram-positive bacteria = details: cited from earlier work

Cc1nnc(SCC2=C(C(=O)O)N3C(=O)[C@@H](NC(=O)Cn4cnnn4)[C@H]3SC2)s1 [Cefazolin]
crossing of the blood brain barrier ([1]; in vivo): does not cross the blood brain barrier
excreted in urine of unchanged structure, share of the excreted amount ([1]; urine, glomerular filtration): 90%
effect on IL-2-induced TNF-α synthesis in PBMC [2]: significantly reduces
effect on IL-15-induced TNF-α synthesis in PBMC [3]: significantly reduces
effect on IL-2-induced PBMC proliferation (IL-2-stimulated PBMC): inhibits
effect on IL-15-induced PBMC proliferation (IL-15-stimulated PBMC): inhibits
cytotoxic or apoptotic activity on PBMC (PBMC): does not trigger the apoptotic pathway
effect on IL-15-induced IL-17 synthesis in PBMC ([4]; IL-15 5 ng/ml, 48 h, Cefazolin 20-1000 μM, vs IL-15 stimulated control cells): significantly reduces
effect of increasing Cefazolin concentration on IL-15-induced IL-17 synthesis ([4]; increase of concentration from 200 μM to 1000 μM): does not affect IL-17 synthesis to any great extent
effect on IL-2-induced IL-17 synthesis in PBMC [5]: Strong inhibitory effect
bactericidal activity against Gram-positive bacteria (Gram-positive bacteria): Potent bactericidal activity
